Data: ChEMBL document CHEMBL1122090, “Species- or isozyme-specific enzyme inhibitors. 7. Selective effects in inhibitions of rat adenylate kinase isozymes by adenosine 5'-phosphate derivatives” (J Med Chem, 1982)

Columns and labels:
[1] = molecular target: T1, Adenylate kinase isoenzyme 1 (Rattus norvegicus) (UniProt P39069); experiment: Relative Vmax value to Adenylate kinase M isoenzyme (adenylate kinase 1, AK1)
T1 sequence (whole entry): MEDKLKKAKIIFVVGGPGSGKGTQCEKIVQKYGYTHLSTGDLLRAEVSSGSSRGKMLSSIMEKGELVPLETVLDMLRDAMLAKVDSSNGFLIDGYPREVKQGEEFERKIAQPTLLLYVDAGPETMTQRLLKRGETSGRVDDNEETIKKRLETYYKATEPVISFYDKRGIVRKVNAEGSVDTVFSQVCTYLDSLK

[2] = molecular target: Adenylate kinase 2, mitochondrial (Rattus norvegicus) (UniProt P29410); experiment: Inhibition index was the ratio between KM of AMP and Ki of AK II; assay type: functional
[3] = molecular target: GTP:AMP phosphotransferase AK3, mitochondrial (Rattus norvegicus) (UniProt P29411); experiment: Relative Vmax value to rat adenylate kinase III.
[4] = molecular target: GTP:AMP phosphotransferase AK3, mitochondrial (Rattus norvegicus) (UniProt P29411); experiment: Inhibition index was the ratio between KM of AMP and Ki of AK III; assay type: functional
[5] = molecular target: Adenylate kinase 2, mitochondrial (Rattus norvegicus) (UniProt P29410); experiment: Relative Vmax value to rat adenylate kinase II.
[6] = molecular target: T1, Adenylate kinase isoenzyme 1 (Rattus norvegicus); experiment: Inhibition index was the ratio between KM of AMP and Ki of AK M; assay type: functional
[7] = Relative inhibition index was the ratio between AK-M and AK III; assay type: functional
[8] = Relative inhibition index was the ratio between AK-M and AK II; assay type: functional
[9] = molecular target: GTP:AMP phosphotransferase AK3, mitochondrial (Rattus norvegicus) (UniProt P29411); experiment: Relative Vmax value to Adenylate kinase III
[10] = system: CC[C@H](OP(=O)(O)O)[C@H]1OC(n2cnc3c(N)ncnc32)[C@H](O)[C@@H]1O; experiment: (§1) Concentration of compound for half-maximal velocity to Adenylate kinase II
[11] = system: CNc1nc(N)c2ncn([C@@H]3O[C@H](COP(=O)(O)O)[C@@H](O)[C@H]3O)c2n1; experiment: as §1
[12] = system: Nc1ncnc2c1ncn2[C@@H]1O[C@H](/C=C/P(=O)(O)O)[C@@H](O)[C@H]1O; experiment: as §1
[13] = system: Nc1nc(N)c2ncn([C@@H]3O[C@H](COP(=O)(O)O)[C@@H](O)[C@H]3O)c2n1; experiment: as §1
[14] = system: Nc1ncnc2c1ncn2[C@@H]1O[C@H](COP(=O)(O)O)[C@@H](O)[C@H]1O; experiment: as §1
[15] = system: Nc1ncnc2c1ncn2[C@@H]1O[C@H](CCP(=O)(O)O)[C@@H](O)[C@H]1O; experiment: as §1
[16] = system: Nc1nc(Cl)nc2c1ncn2[C@@H]1O[C@H](COP(=O)(O)O)[C@@H](O)[C@H]1O; experiment: as §1
[17] = system: C[C@@H]1[C@H](O)[C@@H](COP(=O)(O)O)O[C@H]1n1cnc2c(N)ncnc21; experiment: as §1
[18] = system: CCC[C@H](OP(=O)(O)O)[C@H]1OC(n2cnc3c(N)ncnc32)[C@H](O)[C@@H]1O; experiment: as §1
[19] = system: C[C@H](OP(=O)(O)O)[C@H]1OC(n2cnc3c(N)ncnc32)[C@H](O)[C@@H]1O; experiment: as §1; assay type: functional
[20] = molecular target: Adenylate kinase 2, mitochondrial (Rattus norvegicus) (UniProt P29410); experiment: Relative Vmax value to Adenylate kinase II
[21] = molecular target: GTP:AMP phosphotransferase AK3, mitochondrial (Rattus norvegicus) (UniProt P29411); experiment: Inhibitory constant of compound with Rat adenylate kinase IIl at 1.3 mM concentration in the presence of 0.65 mM AMP
[22] = molecular target: T1, Adenylate kinase isoenzyme 1 (Rattus norvegicus); experiment: Inhibitory constant of compound with Rat adenylate kinase M isozyme at 1.3 mM concentration in the presence of 0.65 mM AMP

GTP:AMP phosphotransferase AK3, mitochondrial (Rattus norvegicus), sequence (P29411 whole entry): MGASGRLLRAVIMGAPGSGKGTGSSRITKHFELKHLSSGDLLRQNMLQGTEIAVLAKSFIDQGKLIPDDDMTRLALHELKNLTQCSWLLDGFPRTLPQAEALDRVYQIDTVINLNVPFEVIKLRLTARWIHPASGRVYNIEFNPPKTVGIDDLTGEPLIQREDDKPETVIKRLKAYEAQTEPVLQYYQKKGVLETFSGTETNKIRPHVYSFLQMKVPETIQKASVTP

Row | Compound | Relative Vmax [1] | Inhibition index [2] | Relative Vmax [3] | Inhibition index [4] | Relative Vmax [5] | Inhibition index [6] | Relative inhibition index [7] | Relative inhibition index [8] | also measured
1 | C[C@@H]1[C@H](O)[C@@H](COP(=O)(O)O)O[C@H]1n1cnc2c(N)ncnc21 | 5.6 | 0.088 | 21 | 0.1 | 29 | 0.11 | 1.1 | 1.2 | 
2 | Adenylate kinase 2, mitochondrial (Rattus norvegicus) (from UniProt P29410) |  |  |  |  |  |  |  |  | Km [10]: 1400 µM; Km [11]: 3000 µM; Km [12]: 1600 µM; Km [13]: 1600 µM; Km [14]: 80 µM; Km [15]: 2500 µM; Km [16]: 1600 µM; Km [17]: 910 µM; Km [18]: 1100 µM; Km [19]: 1300 µM
3 | Nc1ncnc2c1ncn2[C@@H]1O[C@H](COS(=O)(=O)O)[C@@H](O)[C@H]1O | 0 |  | 0 | 0.11 | 0 | 0.12 | 1.1 |  | 
4 | Cn1cnc2c(ncn2[C@@H]2O[C@H](COP(=O)(O)O)[C@@H](O)[C@H]2O)c1=N | 0 |  | 0 |  | 0 |  |  |  | 
5 | CC(=O)NCCNc1ncnc2c1ncn2C1O[C@H](COP(=O)(O)O)[C@@H](O)[C@H]1O (stereo partly specified) | 0 |  | 0 |  | 0 |  |  |  | 
6 | CO[C@H]1[C@@H](O)[C@H](n2cnc3c(N)ncnc32)O[C@@H]1COP(=O)(O)O | > 0 | 0.085 | > 0 | 0.13 | > 0 | 0.34 | 2.6 | 4 | 
7 | CC1(C)O[C@@H]2[C@H](O1)[C@@H](COP(=O)(O)O)O[C@H]2n1cnc2c(N)ncnc21 | 0 | 0.038 | 0 | 0.044 | 0 | 0.25 | 5.7 | 6.6 | 
8 | CN(C)c1nc(N)c2ncn(C3O[C@H](COP(=O)(O)O)[C@@H](O)[C@H]3O)c2n1 (stereo partly specified) | 0.04 | 0.014 | 0 | 0.017 | 0 | 0.077 | 4.5 | 5.5 | 
9 | C=CC[C@]1(COP(=O)(O)O)OC(n2cnc3c(N)ncnc32)[C@H](O)[C@@H]1O (stereo partly specified) | > 0 | 0.21 | > 0 | 0.12 | > 0 | 0.97 | 8.1 | 4.6 | 
10 | Nc1nc(Cl)nc2c1ncn2[C@@H]1O[C@H](COP(=O)(O)O)[C@@H](O)[C@H]1O | 0.13 | 0.05 | 7.5 | 0.05 | 5.8 | 0.21 | 4.2 | 4.2 | 
11 | CC1O[C@@H]2[C@H](O1)[C@@H](COP(=O)(O)O)O[C@H]2n1cnc2c(N)ncnc21 (stereo partly specified) | 0 | 0.03 | 0 | 0.028 | 0 | 0.13 | 4.6 | 4.3 | 
12 | Nc1ncnc2c1nc(Br)n2[C@@H]1O[C@H](COP(=O)(O)O)[C@@H](O)[C@H]1O | 0 |  | 0 |  | 0 |  |  |  | 
13 | C[C@H](OP(=O)(O)O)[C@H]1OC(n2cnc3c(N)ncnc32)[C@H](O)[C@@H]1O (stereo partly specified) | 1 | 0.062 | 8 | 0.1 | 7 | 0.28 | 2.8 | 4.7 | 

Second part, led by results:

Row | Relative Vmax [1] | Inhibition index [2] | Relative Vmax [3] | Inhibition index [4] | Relative Vmax [5] | Inhibition index [6] | Compound | Relative inhibition index [7] | Relative inhibition index [8] | also measured
14 | 0 | 0.015 | 0 | 0.015 | 0 |  | CC[C@@H](OP(=O)(O)O)[C@H]1OC(n2cnc3c(N)ncnc32)[C@H](O)[C@@H]1O (stereo partly specified) |  |  | 
15 | 2.1 | 0.05 |  | 0.057 | 12 | 0.29 | Nc1ncnc2c1ncn2[C@@H]1O[C@H](/C=C/P(=O)(O)O)[C@@H](O)[C@H]1O | 5.1 | 5.8 | Relative Vmax [9]: 13
16 | 0 |  | 0 |  | 0 |  | CCSc1nc2c(N)ncnc2n1C1O[C@H](COP(=O)(O)O)[C@@H](O)[C@H]1O (stereo partly specified) |  |  | 
17 | 2.2 | 0.032 | 21 | 0.036 | 11.2 | 0.14 | Nc1ncnc2c1ncn2[C@@H]1O[C@H](CCP(=O)(O)O)[C@@H](O)[C@H]1O | 3.9 | 4.4 | 
18 | 0 |  | 0 |  | 0 |  | COP(=O)(O)C[C@H]1OC(n2cnc3c(N)ncnc32)[C@H](O)[C@@H]1O (stereo partly specified) |  |  | 
19 | 100 |  | 100 |  | 100 |  | Nc1ncnc2c1ncn2[C@@H]1O[C@H](COP(=O)(O)O)[C@@H](O)[C@H]1O |  |  | 
20 | > 0 |  | > 0 |  | > 0 |  | CSc1nc(N)c2ncn([C@@H]3O[C@H](COP(=O)(O)O)[C@@H](O)[C@H]3O)c2n1 |  |  | 
21 | 0 | 0.0082 | > 0 | 0.008 | > 0 |  | C[C@@H](OP(=O)(O)O)[C@H]1OC(n2cnc3c(N)ncnc32)[C@H](O)[C@@H]1O (stereo partly specified) |  |  | 
22 | 7.1 | 0.05 | 24 | 0.042 | 18 | 0.17 | Nc1nc(N)c2ncn([C@@H]3O[C@H](COP(=O)(O)O)[C@@H](O)[C@H]3O)c2n1 | 4 | 3.4 | 
23 | 0 | 0.025 | 0 | 0.021 | 0 |  | CCC[C@@H](OP(=O)(O)O)[C@H]1OC(n2cnc3c(N)ncnc32)[C@H](O)[C@@H]1O (stereo partly specified) |  |  | 
24 | 0.4 |  | 2.7 | 0.015 |  | 0.14 | CCNc1nc(N)c2ncn([C@@H]3O[C@H](COP(=O)(O)O)[C@@H](O)[C@H]3O)c2n1 | 9.3 |  | 
25 | > 0 | 0.073 | 0.82 | 0.096 |  | 0.41 | CCC[C@H](OP(=O)(O)O)[C@H]1OC(n2cnc3c(N)ncnc32)[C@H](O)[C@@H]1O (stereo partly specified) | 4.3 | 5.6 | Relative Vmax [20]: 1.3
26 | 0 | 0.03 | 0 | 0.032 | 0 | 0.089 | CCC1O[C@@H]2[C@H](O1)[C@@H](COP(=O)(O)O)O[C@H]2n1cnc2c(N)ncnc21 (stereo partly specified) | 2.8 | 3 | 
27 | 0.7 | 0.027 | 10 | 0.022 | 9.7 | 0.2 | CNc1nc(N)c2ncn([C@@H]3O[C@H](COP(=O)(O)O)[C@@H](O)[C@H]3O)c2n1 | 9.1 | 7.4 | 
28 | > 0 | 0.057 | > 0 |  |  | 0.64 | CC[C@H](OP(=O)(O)O)[C@H]1OC(n2cnc3c(N)ncnc32)[C@H](O)[C@@H]1O (stereo partly specified) |  | 11.2 | Relative Vmax [20]: 2.4
29 | 0 |  | 0 |  | 0 |  | Nc1ncnc2c1ncn2C(CO)OC(CO)COP(=O)(O)O (stereo unspecified) |  |  | 
30 | 0 |  | 0 |  | 0 |  | CNc1ncnc2c1ncn2[C@@H]1O[C@H](COP(=O)(O)O)[C@@H](O)[C@H]1O |  |  | inhibition [21]: 15%; inhibition [22]: 15%
31 | > 0 | 0.022 | > 0 | 0.017 | > 0 | 0.14 | CO[C@@H]1[C@H](O)[C@@H](COP(=O)(O)O)O[C@H]1n1cnc2c(N)ncnc21 | 8.2 | 6.4 | 
